EC50 data for 33 compounds are collected here from patent US7998995B2 (Exelixis Patent Company LLC, priority 2006, dated 2011).

The test deals with T1, LXR.
T1 construct: fused on or other part: GST fused to the LBD in the FRET assay
Nature of the test: Measured EC50 or IC50 for LXR (LXRα and/or LXRβ; assay and subtype not given). Particulars: IC50 or EC50 class, subtype not specified. As for the experimental part:
Measured EC50 or IC50 for LXR, and FXR for Compounds of the Invention
LXR and FXR activities for various compounds of the invention are presented in the following table; those compounds with EC50 or IC50 values <10 μM for at least one of LXRα, LXRβ or FXR are considered to be active. In the following Table, IC50 or EC50 data is represented as follows: A<1 μM, B=1-10 μm, and C>10 μM.
As for `O=C(OCc1ccccc1)c1ccc(OCc2cc(C(F)(F)F)nn2-c2ccccc2Cl)cc1` [Example 7, phenylmethyl 4-({[1-(2-chlorophenyl)-3-(trifluoromethyl)-1H-pyrazol-5-yl]methyl}oxy)benzoate], the EC50 was over 10000 nM.

Compound `Cn1cc(-c2cn(-c3ccc(-c4cccc(S(C)(=O)=O)c4)cc3)c(-c3ccccc3C(F)(F)F)n2)cn1` [Example 994, 1-methyl-4-(1-(3′-(methylsulfonyl)biphenyl-4-yl)-2-(2-(trifluoromethyl)phenyl)-1H-imidazol-4-yl)-1H-pyrazole] showed an EC50 of under 1000 nM.

The compound `O=C(O)Cc1cccc(-c2ccc(OCc3cc(C(F)(F)F)nn3-c3ccccc3Cl)cc2)c1` [Example 93, [4′-({[1-(2-chlorophenyl)-3-(trifluoromethyl)-1H-pyrazol-5-yl]methyl}oxy)biphenyl-3-yl]acetic acid] came in with a concentration for a half-maximal effect (EC50) of over 10000 nM.

With `FC(F)(F)c1cc(COc2ccc(-c3ccccc3)cc2)n(-c2ccccc2Cl)n1` [Example 111, 5-[(biphenyl-4-yloxy)methyl]-1-(2-chlorophenyl)-3-(trifluoromethyl)-1H-pyrazole], the EC50 lay within 1000 to 10000 nM.

With `CS(=O)(=O)c1cccc(-c2ccc(-n3cc(-n4cccc4C#N)nc3-c3ccccc3C(F)(F)F)cc2)c1` [Example 1010], the EC50 was under 1000 nM.

`CS(=O)(=O)c1cccc(-c2ccc(-n3cc(-c4ccsc4)nc3-c3ccccc3Cl)c(Cl)c2)c1` [Example 997, 1-(3-chloro-3′-(methylsulfonyl)biphenyl-4-yl)-2-(2-chlorophenyl)-4-(thiophen-3-yl)-1H-imidazole]: the EC50 was under 1000 nM.

In the case of `CS(=O)(=O)Cc1ccc(C#Cc2cc(C(F)(F)F)nn2-c2ccccc2Cl)cc1` [Example 110, 1-(2-chlorophenyl)-5-({4-[(methylsulfonyl)methyl]phenyl}ethynyl)-3-(trifluoromethyl)-1H-pyrazole], the EC50 lay within 1000 to 10000 nM.

`CCOC(=O)c1cc2cc(OCc3cc(C(F)(F)F)nn3-c3ccccc3Cl)ccc2[nH]1` [Example 38, ethyl 5-({[1-(2-chlorophenyl)-3-(trifluoromethyl)-1H-pyrazol-5-yl]methyl}oxy)-1H-indole-2-carboxylate]: the EC50 is over 10000 nM.

With `COC(=O)N1CCCC1c1cn(-c2ccc(-c3cccc(S(C)(=O)=O)c3)cc2)c(C(C)(C)c2ccccc2Cl)n1` (stereo not drawn) [Example 977, Methyl 2-{2-[1-(2-chlorophenyl)-1-methylethyl]-1-[3′-(methylsulfonyl)biphenyl-4-yl]-1H-imidazol-4-yl}pyrrolidine-1-carboxylate], the EC50 was under 1000 nM.

`CN1CC(c2cn(-c3ccc(-c4cccc(S(C)(=O)=O)c4)cc3Cl)c(-c3ccccc3Cl)n2)CC1=O` (stereo not drawn) [Example 984, 4-[1-(3-Chloro-3′-methanesulfonyl-biphenyl-4-yl)-2-(2-chlorophenyl)-1-H-imidazol-4-yl]-1-methyl-pyrrolidin-2-one] returned an EC50 of under 1000 nM.

`CCS(=O)(=O)c1cccc(-c2ccc(-n3cc(C4=NC(C)(C)CO4)nc3-c3c(Cl)cccc3Cl)c(Cl)c2)c1` [Example 935, 2-{1-[3-chloro-3′-(ethylsulfonyl)biphenyl-4-yl]-2-(2,6-dichlorophenyl)-1H-imidazol-4-yl}-4,4-dimethyl-4,5-dihydro-1,3-oxazole]: the EC50 is under 1000 nM.

`CS(=O)(=O)c1cccc(-c2ccc(-n3cc(-c4ccoc4)nc3-c3ccccc3C(F)(F)F)cc2)c1` [Example 995, 4-(furan-3-yl)-1-(3′-(methylsulfonyl)biphenyl-4-yl)-2-(2-(trifluoromethyl)phenyl)-1H-imidazole] yielded an EC50 of under 1000 nM.

`Cn1oc(=O)nc1-c1cn(-c2ccc(-c3cccc(S(C)(=O)=O)c3)cc2)c(-c2ccccc2C(F)(F)F)n1` [Example 1034] had an EC50 of under 1000 nM.

`CS(=O)(=O)c1cccc(-c2ccc(-n3cc(-c4ncco4)nc3-c3ccccc3C(F)(F)F)cc2)c1` [Example 1011, 2-(1-(3′-(methylsulfonyl)biphenyl-4-yl)-2-(2-(trifluoromethyl)phenyl)-1H-imidazol-4-yl)oxazole] showed an EC50 of over 10000 nM.

Compound `CS(=O)(=O)c1cccc(-c2ccc(-n3cc(-c4ncco4)nc3-c3ccccc3Cl)c(Cl)c2)c1` [Example 1012, 2-(1-(3-chloro-3′-(methylsulfonyl)biphenyl-4-yl)-2-(2-chlorophenyl)-1H-imidazol-4-yl)oxazole] gave an EC50 of 1000 to 10000 nM.

Regarding `CS(=O)(=O)c1cccc(-c2ccc(-n3cc(C4(O)CCCC4)nc3-c3ccccc3Cl)cc2)c1` [Example 981, 1-(2-(2-chlorophenyl)-1-(3′-(methylsulfonyl)biphenyl-4-yl)-1H-imidazol-4-yl)cyclopentanol], the EC50 fell in the range of 1000 to 10000 nM.

Turning to `CC(=O)N1CCCC1c1cn(-c2ccc(-c3cccc(S(C)(=O)=O)c3)cc2)c(C(C)(C)c2ccccc2Cl)n1` (stereo not drawn) [Example 978, 4-(1-acetylpyrrolidin-2-yl)-2-[1-(2-chlorophenyl)-1-methylethyl]-1-[3′-(methylsulfonyl)biphenyl-4-yl]-1H-imidazole], the EC50 is under 1000 nM.

Compound `CS(=O)(=O)c1cccc(-c2ccc(-n3cc(N4CCCCC4)nc3-c3ccccc3C(F)(F)F)cc2)c1` [Example 1004, 1-(1-(3′-(methylsulfonyl)biphenyl-4-yl)-2-(2-(trifluoromethyl)phenyl)-1H-imidazol-4-yl)piperidine] displayed an EC50 of under 1000 nM.

`O=C(NCc1cccc(C(F)(F)F)c1)c1cc(C(F)(F)F)nn1-c1cc(Cl)ccc1Cl` [Example 100, 1-(2,5-dichlorophenyl)-3-(trifluoromethyl)-N-{[3-(trifluoromethyl)phenyl]methyl}-1H-pyrazole-5-carboxamide] had an EC50 of over 10000 nM.

Take `CS(=O)(=O)c1ccc(CNC(=O)c2cc(C(F)(F)F)nn2-c2cc(Cl)ccc2Cl)cc1` [Example 101, 1-(2,5-dichlorophenyl)-N-{[4-(methylsulfonyl)phenyl]methyl}-3-(trifluoromethyl)-1H-pyrazole-5-carboxamide]: the EC50 was over 10000 nM.

Turning to `CS(=O)(=O)c1cccc(-c2ccc(OCc3cc(C(F)(F)F)nn3-c3ccccc3Cl)c(F)c2)c1` [Example 925, 1-(2-chlorophenyl)-5-({[3-fluoro-3′-(methylsulfonyl)biphenyl-4-yl]oxy}methyl)-3-(trifluoromethyl)-1H-pyrazole], the EC50 is under 1000 nM.

As for `NS(=O)(=O)c1cccc(C#Cc2cc(C(F)(F)F)nn2-c2ccccc2Cl)c1` [Example 107, 3-{[1-(2-chlorophenyl)-3-(trifluoromethyl)-1H-pyrazol-5-yl]ethynyl}benzenesulfonamide], the EC50 fell in the range of 1000 to 10000 nM.

On to `CS(=O)(=O)c1cccc(-c2ccc(-n3cc(C4=NCCO4)nc3-c3c(Cl)cccc3Cl)c(Cl)c2)c1` [Example 936, 2-{1-[3-chloro-3′-(methylsulfonyl)biphenyl-4-yl]-2-(2,6-dichlorophenyl)-1H-imidazol-4-yl}-4,5-dihydro-1,3-oxazole], for which the EC50 is under 1000 nM.

Consider `CS(=O)(=O)c1cccc(-c2ccc(-n3cc(-n4cnc(CO)c4)nc3-c3ccccc3C(F)(F)F)cc2)c1` [Example 1009, (1′-(3′-(methylsulfonyl)biphenyl-4-yl)-2′-(2-(trifluoromethyl)phenyl)-1′H-1,4′-biimidazol-4-yl)methanol], for which the EC50 is under 1000 nM.

For the compound `CC(C)Oc1ccccc1-n1nc(C(F)(F)F)cc1C(=O)NCc1cccc(C(F)(F)F)c1` [Example 104, 1-{2-[(1-methylethyl)oxy]phenyl}-3-(trifluoromethyl)-N-{[3-(trifluoromethyl)phenyl]methyl}-1H-pyrazole-5-carboxamide], the EC50 was over 10000 nM.

`CC1(C)COC(c2cn(-c3ccc(-c4cccc(S(C)(=O)=O)c4)cc3Cl)c(-c3c(Cl)cccc3Cl)n2)=N1` [Example 934, 2-{1-[3-chloro-3′-(methylsulfonyl)biphenyl-4-yl]-2-(2,6-dichlorophenyl)-1H-imidazol-4-yl}-4,4-dimethyl-4,5-dihydro-1,3-oxazole] yielded an EC50 of under 1000 nM.

In the case of `CS(=O)(=O)c1cccc(NC(=O)c2cc(C(F)(F)F)nn2-c2cc(Cl)ccc2Cl)c1` [Example 99, 1-(2,5-dichlorophenyl)-N-[3-(methylsulfonyl)phenyl]-3-(trifluoromethyl)-1H-pyrazole-5-carboxamide], the EC50 was over 10000 nM.

Take `Cc1cc(OCc2cc(C(F)(F)F)nn2-c2ccccc2Cl)ccc1-c1cccc(S(C)(=O)=O)c1` [Example 910, 1-(2-chlorophenyl)-5-({[2-methyl-3′-(methylsulfonyl)biphenyl-4-]oxy}methyl)-3-(trifluoromethyl)-1H-pyrazole]: the EC50 lay within 1000 to 10000 nM.

For `FC(F)(F)c1cc(COc2ccc(-n3cccc3)cc2)n(-c2ccccc2Cl)n1` [Example 8, 1-(2-chlorophenyl)-5-({[4-(1H-pyrrol-1-yl)phenyl]oxy}methyl)-3-(trifluoromethyl)-1H-pyrazole], the EC50 was under 1000 nM.

In turn, `CS(=O)(=O)c1cccc(-c2ccc(-n3cc(-c4nc(=O)o[nH]4)nc3-c3ccccc3C(F)(F)F)cc2)c1` [Example 1035] registered an EC50 of under 1000 nM.

Compound `CS(=O)(=O)c1cccc(-c2ccc(-n3cc(C4=NCCN4)nc3-c3c(Cl)cccc3Cl)c(Cl)c2)c1` [Example 941, 1′-[3-chloro-3′-(methylsulfonyl)biphenyl-4-yl]-2′-(2,6-dichlorophenyl)-4,5-dihydro-1H,1′H-2,4′-biimidazole] registered a concentration giving a half-maximal response (EC50) of 1000 to 10000 nM.

In turn, `Cc1coc(-c2cn(-c3ccc(-c4cccc(S(C)(=O)=O)c4)cc3)c(-c3ccccc3C(F)(F)F)n2)n1` [Example 1026, methyl-2-(1-(3′-(methylsulfonyl)biphenyl-4-yl)-2-(2-(trifluoromethyl)phenyl)-1H-imidazol-4-yl)oxazole] returned an EC50 of under 1000 nM.

Compound `Cc1nccn1-c1cn(-c2ccc(-c3cccc(S(C)(=O)=O)c3)cc2)c(-c2c(Cl)cccc2Cl)n1` [Example 1001, 2′-(2,6-dichlorophenyl)-2-methyl-1′-[3′-(methylsulfonyl)biphenyl-4-yl]-1′H-1,4′-biimidazole] came in with an EC50 of under 1000 nM.
